Source: paper PMC7689923 (ACS Omega, 2020)
In brackets after ≈: the same amount, converted by molar mass. Several values for one entry are separate records, joined by “and”; a condition that tells them apart may be missing. Equal values may be shown once.

Assays:
Mtb = settings: cited from earlier work
KasA [1] = target: T1, KasA (Mycobacterium tuberculosis, UniProt P9WQD9); experiment: Thermal shift experiments using nanoDSF; type: binding
T1 sequence (P9WQD9 1-416): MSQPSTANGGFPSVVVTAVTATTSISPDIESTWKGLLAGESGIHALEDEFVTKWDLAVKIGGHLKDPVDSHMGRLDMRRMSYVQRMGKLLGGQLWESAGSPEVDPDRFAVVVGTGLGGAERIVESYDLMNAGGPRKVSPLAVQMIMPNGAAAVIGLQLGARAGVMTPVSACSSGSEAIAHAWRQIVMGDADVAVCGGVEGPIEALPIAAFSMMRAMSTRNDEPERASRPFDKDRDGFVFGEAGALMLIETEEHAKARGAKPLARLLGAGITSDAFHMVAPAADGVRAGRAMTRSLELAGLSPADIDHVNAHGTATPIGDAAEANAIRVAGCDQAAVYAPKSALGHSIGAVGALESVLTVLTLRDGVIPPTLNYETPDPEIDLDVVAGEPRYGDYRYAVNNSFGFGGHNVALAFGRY

KasA [2] = target: T1, KasA; experiment: biochemical; type: binding; settings: for KasA binding via MST (in words): at the concentrations tested
KasA [3] = target: T1, KasA; settings: binder of KasA; cited from earlier work

Oc1cc(Cl)ccc1Oc1ccc(Cl)cc1Cl [Triclosan, triclosan]
MIC (Mtb; Mtb inhibitor): 12.5 µM (≈ 3.62 µg/mL)

CC[C@H](C)C(=O)O[C@H]1C[C@@H](C)C=C2C=C[C@H](C)[C@H](CC[C@@H]3C[C@@H](O)CC(=O)O3)[C@H]21 [Lovastatin, lovastatin]
change in Tm (in words) (KasA [1]): did not show significant changes in Tm | Kd (KasA [2]): 224 µM and > 90 µM | KasA binding via MST (in words) (KasA [2]): showed binding to KasA

CCCc1nn(C)c2c(=O)[nH]c(-c3cc(S(=O)(=O)N4CCN(C)CC4)ccc3OCC)nc12 [Sildenafil, sildenafil]
Kd (KasA [2]): 32.5 µM and 30 to 40 µM

COC(=O)Nc1nc2cc(C(=O)c3ccc(F)cc3)ccc2[nH]1 [Flubendazole, flubendazole]
change in Tm (in words) (KasA [1]): did not show significant changes in Tm | Kd (KasA [2]): 38.5 µM and 30 to 40 µM | KasA binding via MST (in words) (KasA [2]): showed binding to KasA

CCCCS(=O)(=O)Nc1ccc2cnn(C)c2c1 [DG167]
EC50 (KasA [3]): 0.131 ± 0.0182 µM | minimum inhibitor concentration (MIC) (Mtb): 0.39 M

CCCNC(=O)NS(=O)(=O)c1ccc(Cl)cc1 [Chlorpropamide]
change in Tm (in words) (KasA [1]): did not show significant changes in Tm | Kd (KasA [2]): 90.6 µM and > 90 µM | KasA binding via MST (in words) (KasA [2]): showed binding to KasA
